Experimental data as given in article PMC12390684 (Viruses, 2025).

biological target: IN-GCN2 interaction (6xHis-IN / GST-GCN2) (UniProt P04585+Q9P2K8); experiment: biochemical; assay type: binding, HIV-1 IN; human GCN2; conditions: dose-response assessment
Sequence (Q9P2K8 192-1024, other chains not shown): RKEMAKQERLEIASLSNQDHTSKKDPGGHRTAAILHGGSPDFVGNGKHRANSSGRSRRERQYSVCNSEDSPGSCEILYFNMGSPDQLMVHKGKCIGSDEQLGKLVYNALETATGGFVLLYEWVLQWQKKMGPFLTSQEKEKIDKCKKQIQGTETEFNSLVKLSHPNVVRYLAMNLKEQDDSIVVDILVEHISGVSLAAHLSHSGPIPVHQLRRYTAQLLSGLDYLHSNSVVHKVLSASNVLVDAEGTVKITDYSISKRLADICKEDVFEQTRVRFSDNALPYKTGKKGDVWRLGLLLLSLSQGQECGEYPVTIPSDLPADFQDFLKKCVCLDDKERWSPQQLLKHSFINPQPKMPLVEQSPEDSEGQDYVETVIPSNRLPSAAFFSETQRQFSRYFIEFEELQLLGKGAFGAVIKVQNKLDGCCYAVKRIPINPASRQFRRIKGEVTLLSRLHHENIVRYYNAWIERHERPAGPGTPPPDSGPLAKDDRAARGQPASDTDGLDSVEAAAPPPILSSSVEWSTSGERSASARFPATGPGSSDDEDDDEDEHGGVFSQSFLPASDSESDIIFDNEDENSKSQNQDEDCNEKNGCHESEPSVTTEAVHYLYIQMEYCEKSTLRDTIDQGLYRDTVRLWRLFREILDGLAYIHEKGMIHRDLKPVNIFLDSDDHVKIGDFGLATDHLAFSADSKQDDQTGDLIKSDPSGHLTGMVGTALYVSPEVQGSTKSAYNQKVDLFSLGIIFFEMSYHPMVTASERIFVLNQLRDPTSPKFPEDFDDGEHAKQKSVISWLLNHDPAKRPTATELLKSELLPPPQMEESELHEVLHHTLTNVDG

SMILES | effect on IN-GCN2 interaction in dose-response, in words
CC(=O)O[C@@H]1C[C@H]2O[C@@H]3C=C(C)CC[C@]3(C)[C@]1(C)[C@]21CO1 [NSC267023] | inactive

same assay, conditions: screen, single dose 100 µM, single replicate; residual AlphaLISA signal normalized to DMSO control

SMILES | IN-GCN2 interaction (%)
O=c1ccn([C@H]2C[C@H](O)[C@@H](CO)O2)c(=O)[nH]1 [NSC23615] | 82.13%
O=C(O)CC(CC(=O)O)C(=O)O [NSC2347] | 84.06%
COc1c(O)ccc2c1CN1CCc3cc4c(cc3C1C2)OCO4 (stereo not shown) [NSC123389] | 87.65%
C=C1C(=O)O[C@H]2C[C@@]3(C)O[C@@H]3CC/C(C)=C/[C@@H](OC(C)=O)[C@H]12 [NSC22070] | 135.82%
CO[C@H]1[C@H](O)[C@@H](O)[C@H](n2c3c(Cl)cccc3c3c4c(c5c6cccc(Cl)c6[nH]c5c32)C(=O)NC4=O)O[C@@H]1CO [NSC359079] | 55.24%
CC[C@H]1OC(=O)[C@H](C)[C@@H](OC2CC(C)(OC)C(O)C(C)O2)[C@H](C)[C@@H](OC2OC(C)CC(N(C)C)C2OC(=O)CCC2CCCC2)[C@](C)(O)C[C@@H](C)C(=O)[C@H](C)[C@@H](O)[C@]1(C)O (stereo partly shown) [NSC63946] | 43.14%
COC(=O)[C@@]12OC[C@]34[C@H]([C@@H](O)[C@@H]1O)[C@@]1(C)CC(=O)C(O)=C(C)[C@@H]1C[C@H]3OC(=O)[C@H](OC(=O)C=C(C)C)[C@@H]24 [NSC172924] | 122.74%
CO[C@@H]1[C@@H](OC(=O)c2ccc(C)[nH]2)[C@@H](O)[C@H](Oc2ccc3c(O)c(NC(=O)c4ccc(O)c(CC=C(C)C)c4)c(=O)oc3c2Cl)OC1(C)C [NSC227186] | 36.34%
COc1cc2c(cc1OC)C13CCN4CC5=CCOC(CC(=O)O)C(C5CC41)C3N2 (stereo not shown) [NSC121865] | 122.60%
O=C1C[C@@H]2OCC=C3C[N+]4([O-])CC[C@]56c7ccccc7N1[C@H]5[C@H]2[C@H]3C[C@@H]64 (stereo partly shown) [NSC24951] | 106.44%
COC1=CC23CCCN2CCc2cc4c(cc2C3C1O)OCO4 (stereo not shown) [NSC128487] | 118.57%
COc1cc([C@@H]2c3cc4c(c(O)c3C[C@H]3COC(=O)[C@@H]32)OCO4)cc(OC)c1OC [NSC24819] | 89.45%
CN1CCc2cc3c(cc2C(=O)Cc2ccc4c(c2C1)OCO4)OCO3.Cl [NSC11440] | 160.70%
CC(C)[C@H]1CC[C@@](C)(C(=O)O)C1 [NSC8973] | 89.12%
COc1ccc(-c2cc(=O)c3ccc(O)cc3o2)cc1OC [NSC123383] | 118.02%
N=C1C=C(N)C(=O)c2[nH]c(=O)ccc21 [NSC111041] | 43.78%
CO[C@@H]1/C=C\O[C@]2(C)Oc3c(C)c(O)c4c(O)c(c(CN(C)C)c(O)c4c3C2=O)NC(=O)/C(C)=C\C=C[C@@H](C)[C@@H](O)[C@H](C)[C@@H](O)[C@H](C)[C@H](OC(C)=O)[C@@H]1C [NSC145612] | 71.81%
O=c1oc2cc(O)ccc2c2oc3cc(O)ccc3c12 [NSC22842] | 123.61%
CC1=C2[C@H]3OC(=O)[C@@H](C)[C@@H]3CC[C@@]2(C)C=C/C1=N\O [NSC42038] | 112.40%
COC1=C[C@@H]2[C@@H]3Cc4ccc(OC)c(O)c4[C@]2(CCN3C)CC1=O [NSC785175] | 87.66%
COc1c2c(cc3c1C1Oc4c(ccc(O)c4CC=C(C)C)C1CO3)OC(C)(C)C=C2 (stereo not shown) [NSC250430] | 16.46%

SMILES | IN-GCN2 interaction (%)
COc1cc2c(cc1O)C[C@H]1c3c(cc(OC)c(OC)c3-2)CCN1C [NSC785189] | 31.39%
CC[C@](C)(O)C(=O)O[C@H]1C(=O)O[C@@H]2C[C@H]3C(C)=C[C@H](O)[C@@H](O)[C@]3(C)[C@H]3[C@]4(O)OC[C@]32[C@@H]1[C@@H](C)[C@H]4O [NSC14975] | 117.58%
CCC(C(=O)C(C)C(O)C(C)CCc1ccc(C)c(O)c1C(=O)O)C1OC(CC)(C2CCC(O)(CC)C(C)O2)CC1C (stereo not shown) [NSC177406] | 94.24%
CC(C)[C@]12CC(=O)[C@@H](C)[C@H]1C2 [NSC67392] | 80.58%
COC1CC(C)C(OC)c2cc(O)cc(c2O)NC(=O)/C(C)=C\C=C/C(C)C(OC(N)=O)/C(C)=C\C(C)C1OC (stereo not shown) [NSC330500] | 77.16%
CC(C)=CCC1=C(O)c2ccccc2C(=O)C1=O [NSC11905] | 107.31%
CCCCCC[C@@H]([C@@H](C)O)n1cnc2c(N)ncnc21 [NSC263164] | 111.18%
COc1ccc(-c2c(C)c(C(=O)O)nc(-c3ccc4c(O)c(OC)c5c(c4n3)=NC(C)(C)N=5)c2N)c(O)c1OC [NSC62709] | 123.77%
O=P(O)(O)OC1OC(CO)C(O)C(O)C1O (stereo not shown) [NSC44138] | 105.48%
COc1ccc2c(c1O)-c1c3c(cc4c1[C@H](C2)N(C)CC4)OCO3 [NSC785188] | 77.54%
COc1cc2c(cc1OC)[C@@H](Cc1ccc(O)cc1)N(C)CC2 [NSC785172] | 91.61%
CCC/C=C/C=C/C(=O)O[C@H]1/C(=C/C(=O)OC)C[C@H]2C[C@H]([C@@H](C)O)OC(=O)C[C@H](O)C[C@@H]3C[C@H](OC(C)=O)C(C)(C)[C@](O)(C[C@@H]4C/C(=C/C(=O)OC)C[C@H](/C=C/C(C)(C)[C@]1(O)O2)O4)O3 [NSC339555] | 32.23%
CC[C@](C)(O)C(=O)O[C@H]1C(=O)O[C@@H]2C[C@H]3C(C)=CC(=O)[C@@H](O)[C@]3(C)[C@H]3[C@@]4(O)OC[C@]32[C@@H]1[C@@H](C)[C@H]4O [NSC132791] | 89.72%
COc1cc2c3c(c1O)-c1ccccc1CC3N(C)CC2 (stereo not shown) [NSC785177] | 73.43%
COc1c2c(c(CC=C(C)C)c3oc(=O)c(-c4ccc(O)cc4)c(O)c13)OC(C)(C)C=C2 [NSC307981] | 101.87%
COC(=O)NC1C(C)OC(OC2C/C=C(/C)C3C=CC4C(OC5CC(OC6CCC(OC7CC(O)C(OC8CCC(O)C(C)O8)C(C)O7)C(C)O6)C(OC(C)=O)C(C)O5)C(C)CC(C)C4C3(C)/C(O)=C3/C(=O)OC4(CC(C=O)=CC(O)C4/C=C\2C)C3=O)CC1(C)[N+](=O)[O-] (stereo not shown) [NSC333856] | 110.41%
CN1CCc2cc3c(c4c2[C@H]1Cc1ccccc1-4)OCO3 [NSC785164] | 64.36%
CCc1c2c(nc3ccc(OC(=O)N4CCC(N5CCCCC5)CC4)cc13)-c1cc3c(c(=O)n1C2)COC(=O)[C@]3(O)CC [NSC616348] | 97.94%
COc1c(OC)c2c3c(ncc(OC)c3c1OC)C(=O)c1ccccc1-2 [NSC785150] | 58.33%
CCCCCCCCCCCCCCCCCCOCC(O)CO (stereo not shown) [NSC284200] | 138.26%
CO[C@H]1/C=C\C=C(/C)C(=O)NC2=CC(=O)C(N)=C(C[C@@H](C)C[C@H](OC)[C@H](O)[C@@H](C)/C=C(\C)[C@@H]1OC(N)=O)C2=O [NSC255109] | 108.78%

SMILES | IN-GCN2 interaction (%)
COc1cc([C@@H]2c3cc4c(cc3[C@@H](O[C@@H]3O[C@@H]5CO[C@@H](c6cccs6)O[C@H]5[C@H](O)[C@H]3O)[C@H]3COC(=O)[C@H]23)OCO4)cc(OC)c1O [NSC122819] | 96.83%
O=c1c(O)cccc2cc(O)c(O)c(O)c12 [NSC35676] | 61.12%
CC(=O)O[C@@H]1[C@@H](O)C2=C3[C@]4(C)[C@@H]1C(C)(C)C(=O)C[C@@H]4[C@]3(O)[C@H](OC(C)=O)[C@@]1(C[C@@H]1C)C2=O [NSC270914] | 122.29%
C[C@]12CC[C@H]3[C@@H](CC[C@]4(O)C[C@@H](O)CC[C@]34/C=N/O)[C@@]1(O)CC[C@@H]2C1=COC(=O)C1 [NSC93373] | 116.21%
CCCCCCCCCC[C@H](C(=O)O)[C@]1(C(=O)O)CCC(=O)O1 [NSC244387] | 146.01%
COC(=O)[C@H]1[C@H]2C[C@H]3c4[nH]c5ccccc5c4CCN3C[C@@H]2CC[C@@H]1O [NSC407306] | 114.25%
CC(=O)CCC(=O)O [NSC3716] | 123.74%
CC1CCC2C(C)C3C(CC4C5CC=C6CC(OC7OC(CO)C(O)C(OC8OC(CO)C(O)C(O)C8O)C7OC7OC(C)C(O)C(O)C7O)CCC6(C)C5CCC43C)N2C1.Cl (stereo not shown) [NSC35611] | 109.39%
COc1ccc(/C=C/C(=O)c2c(OC)cc(OC)c(OC)c2O)cc1 [NSC19038] | 50.51%
O=C1N[C@@H]2C(=C[C@H](O)[C@@H](O)[C@H]2O)c2cc3c(c(O)c21)OCO3 [NSC266535] | 138.97%
COc1ccc2c(c1OC)-c1c(OC)c(OC)cc3c1[C@H](C2)NCC3 [NSC785187] | 70.21%
CC1C(=O)OC2CCN3CC4OC4(COC(=O)C(C)(O)C1(C)O)C23 (stereo not shown) [NSC113087] | 97.53%
O=C1C=C[C@H](O)[C@@]2(CO)O[C@@H]12 [NSC266032] | 108.08%
COC(=O)[C@@H]1[C@H]2C[C@H]3c4[nH]c5ccccc5c4CCN3C[C@@H]2CC[C@@H]1O [NSC19509] | 68.27%
CCCCCc1cc(O)cc2c1Oc1cc(O)cc(C(=O)CCCC)c1C(=O)O2 [NSC31867] | 101.08%
C/C(=C\COc1ccc2ccc(=O)oc2c1)C1=CC(=O)C(C)(C)O1 [NSC142227] | 94.46%
CCCCCCCCCCCCCCCC(=O)OC[C@H]1O[C@@H](n2ccc(N)nc2=O)[C@@H](O)[C@@H]1O [NSC135962] | 92.71%
COc1ccc(-c2oc3cc(O)c(OC)c(O)c3c(=O)c2OC)cc1O [NSC106969] | 98.61%
CC[C@]1(O)C[C@H]2CN(CCc3c([nH]c4ccccc34)[C@@](C(=O)OC)(c3cc4c(cc3OC)N(C=O)[C@H]3[C@@](O)(C(=O)OC)[C@H](OC(C)=O)[C@]5(CC)C=CCN6CC[C@]43[C@@H]65)C2)C1 [NSC67574] | 113.01%

same assay, conditions: screen, single dose 100 µM, single replicate; residual AlphaLISA signal normalized to DMSO control; listed as 59258

SMILES | IN-GCN2 interaction (%)
O=C(O)C1(O)C[C@@H](O)C(O)[C@H](O)C1 (stereo partly shown) [NSC59258] | 71.78%

same assay, conditions: screen, single dose 100 µM, single replicate; residual AlphaLISA signal normalized to DMSO control; listed as 100880

SMILES | IN-GCN2 interaction (%)
CC[C@@]1(O)C(=O)OCc2c1cc1n(c2=O)Cc2cc3ccccc3nc2-1 [NSC100880] | 95.24%
